Laboratory results from patent US6030950A, “Pharmaceutical therapeutic use of glutathione derivative” (priority 1987, dated 2000).
Like-named read-outs stand apart in the source and are kept apart here.

Experiments:
human erythrocytes = conditions: incubation with 0.5 mg of reduced glutathione, 37° C., 30 minutes; 10 mL heparinised venous blood; n=20, average and standard deviation
Experimental: 1.1) In vitro experiment with human erythrocytes to improve and normalize the redox behavior:
Human venous blood (10 mL) was taken from each of 20 patients with different diseases and prevented from clotting by the addition of heparin.

[1] = target: glucose-6-phosphate dehydrogenase (Homo sapiens, UniProt P11413); conditions: incubation with 0.5 mg reduced glutathione, 37° C., 30 minutes; n=22, average and standard deviation
Description: (§1) 1.2) In vitro experiment on cell systems of human erythrocytes Under the same conditions as those for the experiment described above, the enzymes, glucose-6-phosphate dehydrogenase and glutathione reductase, from the erythrocytes of 22 patients, were investigated in vitro. n=22 (average value and standard deviation are given)

glutathione reductase = glutathione reductase (Homo sapiens, UniProt P00390); conditions: incubation with 0.5 mg reduced glutathione, 37° C., 30 minutes; n=22, average and standard deviation
Description: as §1

[2] = rabbit ear venous blood, oxygen deficiency stress, 10 mg/kg, 5-10 minutes after administration; n=30
Experimental: 2.1) Animal Experiments with rabbits to improve and/or normalize the redox status of the blood:
In 5 different rabbits, the following parameters were measured by the method and with the instrument of VINCENT in 30 experiments in venous blood:
redox potential E H or electron potential: rH2
The values were measured in the venous blood of the ear after a defined oxygen deficiency stress.
The following values were determined 5-10 minutes after the glutathione one was administered:
Boundary conditions: Temperature of 20° C., air pressure of 767 mm Hg.

[3] = human blood, oxygen deficiency stress, 600 mg slowly intravenously, 10 minutes after administration; n=50
Experimental: 2.2) Self-experiment on man to improve and/or normalize the redox status of the blood:
After a defined oxygen deficiency stress, the same parameters were determined in human blood as in the trial described above. In all 50 trials were carried out on different days
After that, glutathione was slowly administered intravenously in an amount of 600 mg.
Boundary conditions: Temperature of 20° C., air pressure of 758-770 mm Hg.

[4] = system: malignant melanoma from man; conditions: 300 mg three times per week
Description: 2.4) Experiment with 40 healthy gray mice after transplantation of a malignant melanoma from person.
Forty healthy gray mice were inoculated with 10^6 malignant melanoma cells each.
III.1 Experiment with 40 healthy gray mice after transplantation of a malignant melanoma from person.

[5] = in vivo
[6] = cited from earlier work
[7] = cited from earlier work; remark: listed apart in the source

glutathione reductase, sequence (P00390 44-522): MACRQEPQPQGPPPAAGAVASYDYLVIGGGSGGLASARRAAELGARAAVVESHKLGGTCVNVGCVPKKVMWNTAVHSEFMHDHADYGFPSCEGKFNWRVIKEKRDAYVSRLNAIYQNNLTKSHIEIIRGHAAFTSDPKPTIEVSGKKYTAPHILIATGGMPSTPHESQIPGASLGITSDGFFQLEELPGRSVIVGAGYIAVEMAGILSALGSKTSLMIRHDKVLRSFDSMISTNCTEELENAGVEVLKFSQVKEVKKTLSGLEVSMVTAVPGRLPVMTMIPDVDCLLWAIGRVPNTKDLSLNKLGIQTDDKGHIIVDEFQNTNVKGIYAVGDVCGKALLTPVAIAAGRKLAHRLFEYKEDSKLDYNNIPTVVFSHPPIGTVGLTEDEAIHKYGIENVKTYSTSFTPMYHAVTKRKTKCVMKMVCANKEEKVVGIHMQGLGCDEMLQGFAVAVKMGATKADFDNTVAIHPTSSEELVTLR
glucose-6-phosphate dehydrogenase, sequence (P11413 2-515 limits assumed): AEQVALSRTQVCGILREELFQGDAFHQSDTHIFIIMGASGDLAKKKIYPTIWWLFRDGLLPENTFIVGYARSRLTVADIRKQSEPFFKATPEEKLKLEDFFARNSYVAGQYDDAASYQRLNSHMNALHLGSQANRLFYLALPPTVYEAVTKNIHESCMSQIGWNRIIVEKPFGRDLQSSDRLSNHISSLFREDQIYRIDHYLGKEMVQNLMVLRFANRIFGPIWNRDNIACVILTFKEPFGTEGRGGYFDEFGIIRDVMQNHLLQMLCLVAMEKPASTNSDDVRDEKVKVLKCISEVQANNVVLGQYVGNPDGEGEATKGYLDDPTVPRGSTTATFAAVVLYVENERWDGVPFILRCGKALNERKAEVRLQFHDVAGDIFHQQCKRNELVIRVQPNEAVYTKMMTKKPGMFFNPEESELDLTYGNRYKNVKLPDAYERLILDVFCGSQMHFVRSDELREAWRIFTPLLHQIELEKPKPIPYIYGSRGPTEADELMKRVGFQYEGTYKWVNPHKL

## N[C@@H](CCC(=O)N[C@@H](CS)C(=O)NCC(=O)O)C(=O)O [reduced glutathione, gamma-glutamyl-cysteinyl-glycine]
Human erythrocytes
  content of intraerythrocytic reduced glutathione, value of incubation: 1.99±0.15 mU
[1]
  glucose-6-phosphate dehydrogenase, value after incubation: 179±16 mU/10^9 erys.
Glutathione reductase
  glutathione reductase, value after incubation: 11.3±1.2 U/10^11 erys.
[2]
  redox potential or electron potential rH2: 21.8 ± 0.95
[3]
  redox potential or electron potential rH2: 23.1 ± 1.4
[4]; 30 mice, 10^6 melanoma cells
  further animals died within 20 days: five
  further animals died within 30 days: seven
[4]; 30 mice, 10^6 melanoma cells, untreated controls died within 8-12 days
  animals died within 15 days: three
[4]; 30 days after inoculation
  share of treated animals that survived the period of observation: 50%
[4]; of 30 treated mice, 30 days after inoculation
  animals that survived the period of observation: Fifteen
[5]
  toxicity of the therapeutic dosage: nontoxic
[6]; ethanol
  solubility in ethanol: soluble
[6]; water and physiological salt solution
  solubility in water and physiological salt solution: readily soluble
[7]; COOH(1)
  pK value for COOH(1): 3.53
[7]; COOH(2)
  pK value for COOH(2): 2.12
[7]; NH3^+
  pK value for NH3+: 8.66
[7]; SH
  pK value for SH: 9.66
